# From US20030186967A1, “Acylresorcinol derivatives are selective vitronectin receptor inhibitors” (American Home Products Corporation, priority 1998, published 2003)
# Target: T1, Vitronectin receptor αVβ3 (Homo sapiens, UniProt P05106+P06756)
# T1 construct: expressed in transfected cells; host or cells: 512P5 cells (plasma membrane preparation)
# Experiment: Vitronectin Receptor αVβ3 Binding Assay
# Settings: read-out: VnR (IC50μM)
# T1 sequence (P06756 31-889 limits assumed): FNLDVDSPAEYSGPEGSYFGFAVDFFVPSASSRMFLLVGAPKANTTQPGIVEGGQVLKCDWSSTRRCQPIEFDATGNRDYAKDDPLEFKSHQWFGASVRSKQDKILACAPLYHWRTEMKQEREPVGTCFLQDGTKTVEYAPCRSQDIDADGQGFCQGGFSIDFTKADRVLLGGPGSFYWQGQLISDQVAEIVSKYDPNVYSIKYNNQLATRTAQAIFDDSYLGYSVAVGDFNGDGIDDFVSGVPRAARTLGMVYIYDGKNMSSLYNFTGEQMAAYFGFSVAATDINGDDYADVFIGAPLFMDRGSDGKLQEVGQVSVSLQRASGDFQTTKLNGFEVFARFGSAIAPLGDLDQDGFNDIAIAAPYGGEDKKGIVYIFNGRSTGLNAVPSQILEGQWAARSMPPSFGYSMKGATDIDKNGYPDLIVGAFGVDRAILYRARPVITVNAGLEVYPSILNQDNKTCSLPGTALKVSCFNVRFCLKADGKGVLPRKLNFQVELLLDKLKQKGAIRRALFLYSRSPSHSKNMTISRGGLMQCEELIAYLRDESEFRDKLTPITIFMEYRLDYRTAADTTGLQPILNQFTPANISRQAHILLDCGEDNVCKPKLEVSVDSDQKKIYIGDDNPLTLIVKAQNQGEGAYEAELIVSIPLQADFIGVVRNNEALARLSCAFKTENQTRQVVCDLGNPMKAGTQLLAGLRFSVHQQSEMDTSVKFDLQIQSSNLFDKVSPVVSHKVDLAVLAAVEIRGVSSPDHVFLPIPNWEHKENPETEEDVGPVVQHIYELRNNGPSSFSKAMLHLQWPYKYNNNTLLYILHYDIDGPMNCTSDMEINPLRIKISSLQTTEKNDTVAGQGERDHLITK
# T1 sequence (P06756 891-1048 partner limits assumed): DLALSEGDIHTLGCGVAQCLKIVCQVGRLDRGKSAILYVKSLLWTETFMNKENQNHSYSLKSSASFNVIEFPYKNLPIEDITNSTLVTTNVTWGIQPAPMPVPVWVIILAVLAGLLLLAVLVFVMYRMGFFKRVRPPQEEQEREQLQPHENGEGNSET
# T1 sequence (P05106 27-788): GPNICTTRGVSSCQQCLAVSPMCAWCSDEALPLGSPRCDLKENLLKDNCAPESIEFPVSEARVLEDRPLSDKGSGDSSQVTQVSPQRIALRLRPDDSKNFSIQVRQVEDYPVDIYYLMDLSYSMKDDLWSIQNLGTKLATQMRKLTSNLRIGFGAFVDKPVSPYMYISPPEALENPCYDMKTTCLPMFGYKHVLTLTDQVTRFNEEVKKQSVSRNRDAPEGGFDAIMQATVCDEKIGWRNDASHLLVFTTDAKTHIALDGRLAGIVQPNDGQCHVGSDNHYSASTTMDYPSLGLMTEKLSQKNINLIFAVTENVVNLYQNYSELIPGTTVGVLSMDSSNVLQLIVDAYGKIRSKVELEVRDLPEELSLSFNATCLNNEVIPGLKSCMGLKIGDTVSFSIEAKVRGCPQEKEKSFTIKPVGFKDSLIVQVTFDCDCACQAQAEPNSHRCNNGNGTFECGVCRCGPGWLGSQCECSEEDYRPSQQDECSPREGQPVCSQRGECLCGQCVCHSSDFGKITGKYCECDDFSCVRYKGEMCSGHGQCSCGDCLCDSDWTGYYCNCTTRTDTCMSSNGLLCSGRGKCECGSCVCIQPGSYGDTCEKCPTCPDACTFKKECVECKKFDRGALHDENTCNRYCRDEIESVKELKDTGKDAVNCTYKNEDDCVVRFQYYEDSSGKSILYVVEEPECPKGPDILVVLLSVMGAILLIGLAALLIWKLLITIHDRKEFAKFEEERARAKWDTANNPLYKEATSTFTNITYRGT
row,SMILES,IC50 [µM]
1,COc1ccc(NC(=O)N[C@@H](CNC(=O)c2ccc(OCCNC(=N)N)cc2O)C(=O)O)cc1 [Example 188],12.1
2,"N=C(N)NCCOc1ccc(C(=O)NC[C@H](NC(=O)Nc2ccccc2)C(=O)O)c(O)c1 [Example 189, (2S)-3-{[4-(2-{[amino(imino)methyl]amino}ethoxy)-2-hydroxybenzoyl]amino}-2-[(anilinocarbonyl)amino]propanoic acid]",6.87
3,"CC(C)C(=O)N[C@@H](CNC(=O)c1ccc(OCCNC(=N)N)cc1O)C(=O)O [Example 190, (2S)-3-{[4-(2-{[amino(imino)methyl]amino}ethoxy)-2-hydroxybenzoyl]amino}-2-(isobutyrylamino)propanoic acid]",> 1
4,"CCCC(=O)N[C@@H](CNC(=O)c1ccc(OCCNC(=N)N)cc1O)C(=O)O [Example 191, (2S)-3-{[4-(2-{[amino(imino)methyl]amino}ethoxy)-2-hydroxybenzoyl]amino}-2-(butyrylamino)propanoic acid]",> 1
5,"CCCCCC(=O)N[C@@H](CNC(=O)c1ccc(OCCNC(=N)N)cc1O)C(=O)O [Example 192, (2S)-3-{[4-(2-{[amino(imino)methyl]amino}ethoxy)-2-hydroxybenzoyl]amino}-2-(hexanoylamino)propanoic acid]",> 1
6,"CCCCC(=O)N[C@@H](CNC(=O)c1ccc(OCCNC(=N)N)cc1O)C(=O)O [Example 193, (2S)-3-{[4-(2-{[amino(imino)methyl]amino}ethoxy)-2-hydroxybenzoyl]amino}-2-(pentanoylamino)propanoic acid]",> 1
7,CC(C)(C)CC(=O)N[C@@H](CNC(=O)c1ccc(OCCNC(=N)N)cc1O)C(=O)O [Example 194],> 1
8,"CC1(C)C(C(=O)N[C@@H](CNC(=O)c2ccc(OCCNC(=N)N)cc2O)C(=O)O)C1(C)C [Example 195, (2S)-3-{[4-(2-{[amino(imino)methyl]amino}ethoxy)-2-hydroxybenzoyl]amino}-2-{[(2,2,3,3-tetramethylcyclopropyl)carbonyl]amino}propanoic acid]",> 1
9,"N=C(N)NCCOc1ccc(C(=O)NC[C@H](NC(=O)CC23CC4CC(CC(C4)C2)C3)C(=O)O)c(O)c1 [Example 196, (2S)-2-{[2-(1-adamantyl)acetyl]amino}-3-{[4-(2-{[amino(imino)methyl]amino}-ethoxy)-2-hydroxybenzoyl]amino}propanoic acid]",5.71
10,"C#CCCC(=O)N[C@@H](CNC(=O)c1ccc(OCCNC(=N)N)cc1O)C(=O)O [Example 197, (2S)-3-{[4-(2-{[amino(imino)methyl]amino}ethoxy)-2-hydroxybenzoyl]amino}-2-(pent-4-ynoylamino)propanoic acid]",> 1
11,"N=C(N)NCCOc1ccc(C(=O)NC[C@H](NC(=O)C2CCCCC2)C(=O)O)c(O)c1 [Example 198, (2S)-3-{[4-(2-{[amino(imino)methyl]amino}ethoxy)-2-hydroxybenzoyl]amino}-2-[(cyclohexylcarbonyl)amino]propanoic acid]",> 1
12,"N=C(N)NCCOc1ccc(C(=O)NC[C@H](NC(=O)Cc2ccccc2)C(=O)O)c(O)c1 [Example 199, (2S)-3-{[4-(2-{[amino(imino)methyl]amino}ethoxy)-2-hydroxybenzoyl]amino}-2-[(2-phenylacetyl)amino]propanoic acid]",14.7
13,"N=C(N)NCCOc1ccc(C(=O)NC[C@H](NC(=O)CCc2ccccc2)C(=O)O)c(O)c1 [Example 200, (2S)-3-{[4-(2-{[amino(imino)methyl]amino}ethoxy)-2-hydroxybenzoyl]amino}-2-[(3-phenylpropanoyl)amino]propanoic acid]",> 1
14,"N=C(N)NCCOc1ccc(C(=O)NC[C@H](NC(=O)CC2CCCCC2)C(=O)O)c(O)c1 [Example 201, (2S)-3-{[4-(2-{[amino(imino)methyl]amino}ethoxy)-2-hydroxybenzoyl]amino}-2-[(2-cyclohexylacetyl)amino]propanoic acid]",13.2
15,"N=C(N)NCCOc1ccc(C(=O)NC[C@H](NC(=O)/C=C/c2ccccc2)C(=O)O)c(O)c1 [Example 202, (2S)-3-{[4-(2-{[amino(imino)methyl]amino}ethoxy)-2-hydroxybenzoyl]amino}-2-{[(E)-3-phenylprop-2-enoyl]amino}propanoic acid]",> 1
16,"N=C(N)NCCOc1ccc(C(=O)NC[C@H](NC(=O)c2ccccc2Cl)C(=O)O)c(O)c1 [Example 203, (2S)-3-{[4-(2-{[amino(imino)methyl]amino}ethoxy)-2-hydroxybenzoyl]amino}-2-[(2-chlorobenzoyl)amino]propanoic acid]",14.1
17,"Cc1ccccc1C(=O)N[C@@H](CNC(=O)c1ccc(OCCNC(=N)N)cc1O)C(=O)O [Example 204, (2S)-3-{[4-(2-{[amino(imino)methyl]amino}ethoxy)-2-hydroxybenzoyl]amino}-2-[(2-methylbenzoyl)amino]propanoic acid]",7.48

row,SMILES,IC50 [µM]
1,"COc1ccccc1C(=O)N[C@@H](CNC(=O)c1ccc(OCCNC(=N)N)cc1O)C(=O)O [Example 205, (2S)-3-{[4-(2-{[amino(imino)methyl]amino}ethoxy)-2-hydroxybenzoyl]amino}-2-[(2-methoxybenzoyl)amino]propanoic acid]",> 1
2,"N=C(N)NCCOc1ccc(C(=O)NC[C@H](NC(=O)c2ccc(Cl)cc2)C(=O)O)c(O)c1 [Example 206, (2S)-3-{[4-(2-{[amino(imino)methyl]amino}ethoxy)-2-hydroxybenzoyl]amino}-2-[(4-chlorobenzoyl)amino]propanoic acid]",> 1
3,"Cc1ccc(C(=O)N[C@@H](CNC(=O)c2ccc(OCCNC(=N)N)cc2O)C(=O)O)cc1 [Example 207, (2S)-3-{[4-(2-{[amino(imino)methyl]amino}ethoxy)-2-hydroxybenzoyl]amino}-2-[(4-methylbenzoyl)amino]propanoic acid]",> 1
4,"COc1ccc(C(=O)N[C@@H](CNC(=O)c2ccc(OCCNC(=N)N)cc2O)C(=O)O)cc1 [Example 208, (2S)-3-{[4-(2-{[amino(imino)methyl]amino}ethoxy)-2-hydroxybenzoyl]amino-}-2-[(4-methoxybenzoyl)amino]propanoic acid]",> 1
5,"N=C(N)NCCOc1ccc(C(=O)NC[C@H](NC(=O)c2cccnc2)C(=O)O)c(O)c1 [Example 209, (2S)-3-{[4-(2-{[amino(imino)methyl]amino}ethoxy)-2-hydroxybenzoyl]amino}-2-[(pyridin-3-ylcarbonyl)amino]propanoic acid]",> 1
6,"N=C(N)NCCOc1ccc(C(=O)NC[C@H](NC(=O)c2ccncc2)C(=O)O)c(O)c1 [Example 210, (2S)-3-{[4-(2-{[amino(imino)methyl]amino}ethoxy)-2-hydroxybenzoyl]amino}-2-(isonicotinoylamino)propanoic acid]",> 1
7,"Cc1cc(C(=O)N[C@@H](CNC(=O)c2ccc(OCCNC(=N)N)cc2O)C(=O)O)c(C)o1 [Example 211, (2S)-3-{[4-(2-{[amino(imino)methyl]amino}ethoxy)-2-hydroxybenzoyl]amino}-2-[(2,5-dimethyl-3-furoyl)amino]propanoic acid]",> 1
8,"N=C(N)NCCOc1ccc(C(=O)NC[C@H](NC(=O)c2ccccc2Br)C(=O)O)c(O)c1 [Example 212, (2S)-3-{[4-(2-{[amino(imino)methyl]amino}ethoxy)-2-hydroxybenzoyl]amino-}-2-[(2-bromobenzoyl)amino]propanoic acid]",13.1
9,"N=C(N)NCCOc1ccc(C(=O)NC[C@H](NC(=O)c2ccc(Br)cc2)C(=O)O)c(O)c1 [Example 213, (2S)-3-{[4-(2-{[amino(imino)methyl]amino}ethoxy)-2-hydroxybenzoyl]amino}-2-[(4-bromobenzoyl)amino]propanoic acid]",> 1
10,"Cc1cccc(C(=O)N[C@@H](CNC(=O)c2ccc(OCCNC(=N)N)cc2O)C(=O)O)c1C [Example 214, (2S)-3-{[4-(2-{[amino(imino)methyl]amino}ethoxy)-2-hydroxybenzoyl]amino}-2-[(2,3-dimethylbenzoyl)amino]propanoic acid]",2.31
11,"N=C(N)NCCOc1ccc(C(=O)NC[C@H](NC(=O)c2cccc(Cl)c2)C(=O)O)c(O)c1 [Example 215, (2S)-3-{[4-(2-{[amino(imino)methyl]amino}ethoxy)-2-hydroxybenzoyl]amino}-2-[(3-chlorobenzoyl)amino]propanoic acid]",> 1
12,"CC(C)(C)COC(=O)N[C@@H](CNC(=O)c1ccc(OCCNC(=O)NCc2ccccc2)cc1O)C(=O)O [Example 219, (2S)-3-{[4-(2-{[(benzylamino)carbonyl]amino}ethoxy)-2-hydroxy-benzoyl]amino}-2-{[(neopentyloxy)carbonyl]amino}propanoic acid]",1.8
13,"O=C(NCCOc1ccc(C(=O)NC[C@H](NC(=O)OCc2ccccc2)C(=O)O)c(O)c1)NCc1ccccc1 [Example 220, (2S)-3-{[4-(2-{[(benzylamino)carbonyl]amino}ethoxy)-2-hydroxybenzoyl]amino}-2-{[(benzyloxy)carbonyl]amino}propanoic acid]",8.8
14,"COC(=O)N[C@@H](CNC(=O)c1ccc(OCCNC(=O)NCc2ccccc2)cc1O)C(=O)O [Example 221, (2S)-3-{[4-(2-{[(benzylamino)carbonyl]amino}ethoxy)-2-hydroxybenzoyl]amino}-2-[(methoxycarbonyl)amino]propanoic acid]",22.8
15,"CCOC(=O)N[C@@H](CNC(=O)c1ccc(OCCNC(=O)NCc2ccccc2)cc1O)C(=O)O [Example 222, (2S)-3-{[4-(2-{[(benzylamino)carbonyl]amino}ethoxy)-2-hydroxybenzoyl]amino}-2-[(ethoxycarbonyl)amino]propanoic acid]",20.8
16,"CCCOC(=O)N[C@@H](CNC(=O)c1ccc(OCCNC(=O)NCc2ccccc2)cc1O)C(=O)O [Example 223, (2S)-3-{[4-(2-{[(benzylamino)carbonyl]amino}ethoxy)-2-hydroxybenzoyl]amino}-2-[(propoxycarbonyl)amino]propanoic acid]",5.5
17,"CC(C)OC(=O)N[C@@H](CNC(=O)c1ccc(OCCNC(=O)NCc2ccccc2)cc1O)C(=O)O [Example 224, (2S)-3-{[4-(2-{[(benzylamino)carbonyl]amino}ethoxy)-2-hydroxybenzoyl]amino}-2-[(isopropoxycarbonyl)amino]propanoic acid]",4.1
